Data reported in paper PMC8822125, “RW-BP100-4D, a Promising Antimicrobial Candidate With Broad-Spectrum Bactericidal Activity” (Frontiers in Microbiology, 2022).
In brackets after ≈: the same amount, converted by molar mass. Where a SMILES comes first, the peptide text is derived from it.

Legend:
[1] = test system: Staphylococcus aureus ATCC29213; assay: MIC/MBC, broth microdilution; type: cell-based; settings: Table 1; broth microdilution CLSI M100-S25, MH broth, 37°C, 18 h, three independent repeats
various microorganisms = assay: MIC/MBC, summary statements over several strains; type: cell-based; settings: summary of Table 1
[2] = test system: Escherichia coli ATCC25922; settings: Table 1; broth microdilution CLSI M100-S25, MH broth, 37°C, 18 h, three independent repeats
sheep red blood cells = sheep red blood cells in PBS, 37°C, 1 h, OD576, relative to melittin, mean ± SD, three repeats; for Hemolytic rate, 50 μg/mL: 50 μg/mL peptide; for Hemolytic rate, 100 μg/mL: 100 μg/mL peptide; for Hemolytic rate, 150 μg/mL: 150 μg/mL peptide; for Hemolytic rate, 300 μg/mL: 300 μg/mL peptide;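 as to all read-outs here: hemolysis expressed in % from supernatant absorbance, with PBS-treated cells as 0% baseline and melittin as 100%, peptide mixed 1:1 with an 8% v/v erythrocyte suspension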
MAC-T cells = settings: peptide 150 μg/mL, 24 h, WST-1, mean ± SD, three repeats
RAW264.7 cells = settings: peptide 150 μg/mL, 24 h, WST-1, mean ± SD, three repeats

Structure (SMILES)	MIC Staphylococcus aureus ATCC29213 [1]	MIC against S. aureus ATCC29213 and E. coli ATCC25922 (both strains together) (various microorganisms)	MIC Escherichia coli ATCC25922 [2]	Hemolytic rate, 50 μg/mL (sheep red blood cells)	Hemolytic rate, 100 μg/mL (sheep red blood cells)	Hemolytic rate, 150 μg/mL (sheep red blood cells)	Hemolytic rate, 300 μg/mL (sheep red blood cells)	Cell survival rate, MAC-T (MAC-T cells)	Cell survival rate, RAW264.7 (RAW264.7 cells)
CC[C@H](C)[C@H](NC(=O)[C@@H](CCCNC(=N)N)NC(=O)[C@H](CCCNC(=N)N)NC(=O)[C@H](Cc1ccccc1)NC(=O)[C@H](CC(C)C)NC(=O)[C@H](CCCNC(=N)N)NC(=O)[C@@H](N)CCCNC(=N)N)C(=O)N[C@@H](CC(C)C)C(=O)N[C@@H](CCCNC(=N)N)C(=O)N[C@@H](Cc1c[nH]c2ccccc12)C(=O)N[C@@H](CC(C)C)C(N)=O [RW-BP100-6D] (HELM PEPTIDE1{R.R.L.F.R.[dR].I.L.R.W.L.[am]}$$$$V2.0)	12 µg/mL (≈ 7.58 µM)	3 to 12 µg/mL	12 µg/mL (≈ 7.58 µM)	2.33 ± 1.51%	3.25 ± 0.23%	32.57 ± 1.20%	55.81 ± 2.87%	58.87 ± 3.45%	5.92 ± 2.63%
CC[C@H](C)[C@H](NC(=O)[C@H](CCCNC(=N)N)NC(=O)[C@H](CCCNC(=N)N)NC(=O)[C@H](Cc1ccccc1)NC(=O)[C@H](CC(C)C)NC(=O)[C@H](CCCNC(=N)N)NC(=O)[C@H](N)CCCNC(=N)N)C(=O)N[C@@H](CC(C)C)C(=O)N[C@@H](CCCNC(=N)N)C(=O)N[C@@H](Cc1c[nH]c2ccccc12)C(=O)N[C@@H](CC(C)C)C(N)=O [RW-BP100-1D] (HELM PEPTIDE1{[dR].R.L.F.R.R.I.L.R.W.L.[am]}$$$$V2.0)	25 µg/mL (≈ 15.8 µM)		12 µg/mL (≈ 7.58 µM)	4.61 ± 0.47%	5.49 ± 0.23%	39.81 ± 0.20%	52.88 ± 3.06%	52.71 ± 5.68%	9.55 ± 2.45%
CC[C@@H](C)[C@@H](NC(=O)[C@H](CCCNC(=N)N)NC(=O)[C@H](CCCNC(=N)N)NC(=O)[C@H](Cc1ccccc1)NC(=O)[C@H](CC(C)C)NC(=O)[C@H](CCCNC(=N)N)NC(=O)[C@@H](N)CCCNC(=N)N)C(=O)N[C@@H](CC(C)C)C(=O)N[C@@H](CCCNC(=N)N)C(=O)N[C@@H](Cc1c[nH]c2ccccc12)C(=O)N[C@@H](CC(C)C)C(N)=O [RW-BP100-7D] (HELM PEPTIDE1{R.R.L.F.R.R.[dI].L.R.W.L.[am]}$$$$V2.0)	25 µg/mL (≈ 15.8 µM)		25 µg/mL (≈ 15.8 µM)	0.53 ± 1.12%	1.11 ± 0.19%	16.17 ± 3.36%	45.65 ± 5.13%	96.41 ± 3.75%	93.74 ± 1.25%
CC[C@H](C)[C@H](NC(=O)[C@H](CCCNC(=N)N)NC(=O)[C@H](CCCNC(=N)N)NC(=O)[C@H](Cc1ccccc1)NC(=O)[C@H](CC(C)C)NC(=O)[C@H](CCCNC(=N)N)NC(=O)[C@@H](N)CCCNC(=N)N)C(=O)N[C@@H](CC(C)C)C(=O)N[C@@H](CCCNC(=N)N)C(=O)N[C@H](Cc1c[nH]c2ccccc12)C(=O)N[C@@H](CC(C)C)C(N)=O [RW-BP100-10D] (HELM PEPTIDE1{R.R.L.F.R.R.I.L.R.[dW].L.[am]}$$$$V2.0)	50 µg/mL (≈ 31.6 µM)		50 µg/mL (≈ 31.6 µM)	0.31 ± 0.37%	1.28 ± 0.19%	19.20 ± 2.16%	45.08 ± 4.70%	94.41 ± 4.26%	92.19 ± 6.32%
CC[C@H](C)[C@H](NC(=O)[C@H](CCCNC(=N)N)NC(=O)[C@H](CCCNC(=N)N)NC(=O)[C@H](Cc1ccccc1)NC(=O)[C@H](CC(C)C)NC(=O)[C@@H](CCCNC(=N)N)NC(=O)[C@@H](N)CCCNC(=N)N)C(=O)N[C@@H](CC(C)C)C(=O)N[C@@H](CCCNC(=N)N)C(=O)N[C@@H](Cc1c[nH]c2ccccc12)C(=O)N[C@@H](CC(C)C)C(N)=O [RW-BP100-2D] (HELM PEPTIDE1{R.[dR].L.F.R.R.I.L.R.W.L.[am]}$$$$V2.0)	25 µg/mL (≈ 15.8 µM)		12 µg/mL (≈ 7.58 µM)	4.83 ± 1.08%	5.99 ± 0.79%	39.16 ± 1.75%	62.12 ± 6.27%	63.07 ± 3.23%	6.83 ± 5.69%
CC[C@H](C)[C@H](NC(=O)[C@H](CCCNC(=N)N)NC(=O)[C@H](CCCNC(=N)N)NC(=O)[C@H](Cc1ccccc1)NC(=O)[C@H](CC(C)C)NC(=O)[C@H](CCCNC(=N)N)NC(=O)[C@@H](N)CCCNC(=N)N)C(=O)N[C@@H](CC(C)C)C(=O)N[C@H](CCCNC(=N)N)C(=O)N[C@@H](Cc1c[nH]c2ccccc12)C(=O)N[C@@H](CC(C)C)C(N)=O [RW-BP100-9D] (HELM PEPTIDE1{R.R.L.F.R.R.I.L.[dR].W.L.[am]}$$$$V2.0)	25 µg/mL (≈ 15.8 µM)		25 µg/mL (≈ 15.8 µM)	0.63 ± 0.24%	1.53 ± 0.09%	18.14 ± 0.20%	45.18 ± 2.41%	92.50 ± 2.36%	91.33 ± 5.63%
CC[C@H](C)[C@H](NC(=O)[C@H](CCCNC(=N)N)NC(=O)[C@H](CCCNC(=N)N)NC(=O)[C@H](Cc1ccccc1)NC(=O)[C@@H](CC(C)C)NC(=O)[C@H](CCCNC(=N)N)NC(=O)[C@@H](N)CCCNC(=N)N)C(=O)N[C@@H](CC(C)C)C(=O)N[C@@H](CCCNC(=N)N)C(=O)N[C@@H](Cc1c[nH]c2ccccc12)C(=O)N[C@@H](CC(C)C)C(N)=O [RW-BP100-3D] (HELM PEPTIDE1{R.R.[dL].F.R.R.I.L.R.W.L.[am]}$$$$V2.0)	25 µg/mL (≈ 15.8 µM)		50 µg/mL (≈ 31.6 µM)	3.49 ± 0.76%	4.04 ± 0.20%	38.13 ± 3.12%	55.73 ± 5.27%	50.63 ± 2.36%	7.69 ± 7.89%
